Reference: ChEMBL document CHEMBL1201862, “PubChem BioAssay data set” (2004)
The source made the active and inactive calls.

Assays:
[1] = Trypanosoma cruzi growth suppression in host cells – NIH3T3 host cells, beta-gal luminescence, confirmation (AID 2044); type: functional, cell-based;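 note: intracellular parasites grown in NIH/3T3 mouse fibroblasts as host cells; luminescent beta-galactosidase reporter signal from transgenic T. cruzi replicating inside host cells; inhibitors lower the luminescence signal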
[2] = NIH3T3 cell viability loss – ATP luminescence, mouse fibroblasts, counter-screen, dose response (AID 2010); type: functional, cell-based;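 note: cells exposed to compound for about 90 hours before reading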
[3] = cells
[4] = Luminescence Cell-Based Dose Response to Identify Activators of Luciferase Translation or Activity in H4-C Neuroglioblastoma Cells. [Related pubchem assays: 1829 (Project Summary), 1814 (Primary HTS)]; type: functional
[5] = Luminescence Cell-Based Dose Response to Identify Activators of 5'UTR Stem-Loop Driven Prion Protein mRNA Translation in H4-C Neuroglioblastoma Cells. [Related pubchem assays: 1829 (Project Summary), 1814 (Primary HTS)]; type: functional
[6] = Luminescence Cell-Based Dose Confirmation to Identify Activators of 5'UTR Stem-Loop Driven Alpha-Synuclein mRNA Translation in H4 Neuroglioblastoma Cells. [Related pubchem assays: 1829 (Project Summary), 1814 (Primary HTS)]; type: functional
[7] = system: H4; test: Luminescence Cell-Based Dose Response HTS to Identify Activators of 5'UTR Stem-Loop Driven Prion Protein mRNA Translation in H4 Neuroglioblastoma Cells. [Related pubchem assays: 1829 (Project Summary), 1814 (Primary HTS)]; type: functional; conditions: Homo sapiens
[8] = Luminescence Cell-Based Dose Response HTS to Identify Activators of Luciferase Translation or Activity in H4 […] Cells. [Related pubchem assays: 1829 (Project Summary), 1814 (Primary HTS)]; type: functional
[9] = molecular target: Procathepsin L (Homo sapiens, UniProt P07711); test: CTSL1 protease inhibition – biochemical, QFRET, 1536-well, counter-screen for M1/M17 aminopeptidase inhibitor project, dose response (AID 2214)
Sequence of Procathepsin L (P07711 whole entry): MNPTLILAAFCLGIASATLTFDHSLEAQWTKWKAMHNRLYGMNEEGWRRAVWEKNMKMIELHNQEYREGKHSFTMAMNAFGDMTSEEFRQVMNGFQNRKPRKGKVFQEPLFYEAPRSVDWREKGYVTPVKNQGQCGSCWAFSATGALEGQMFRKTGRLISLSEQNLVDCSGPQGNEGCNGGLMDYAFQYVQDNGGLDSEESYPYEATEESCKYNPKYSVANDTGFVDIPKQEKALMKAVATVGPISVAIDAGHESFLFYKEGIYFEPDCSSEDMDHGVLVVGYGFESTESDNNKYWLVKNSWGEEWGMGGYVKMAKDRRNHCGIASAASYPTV

[10] = molecular target: T1, Leucine aminopeptidase (Plasmodium falciparum 3D7, UniProt Q8IL11); test: P. falciparum M17LAP inhibitors, primary screen, biochemical, fluorogenic H-Leu-NHMec substrate, 1536-well (AID 1619); type: functional
T1 sequence (Q8IL11 whole entry): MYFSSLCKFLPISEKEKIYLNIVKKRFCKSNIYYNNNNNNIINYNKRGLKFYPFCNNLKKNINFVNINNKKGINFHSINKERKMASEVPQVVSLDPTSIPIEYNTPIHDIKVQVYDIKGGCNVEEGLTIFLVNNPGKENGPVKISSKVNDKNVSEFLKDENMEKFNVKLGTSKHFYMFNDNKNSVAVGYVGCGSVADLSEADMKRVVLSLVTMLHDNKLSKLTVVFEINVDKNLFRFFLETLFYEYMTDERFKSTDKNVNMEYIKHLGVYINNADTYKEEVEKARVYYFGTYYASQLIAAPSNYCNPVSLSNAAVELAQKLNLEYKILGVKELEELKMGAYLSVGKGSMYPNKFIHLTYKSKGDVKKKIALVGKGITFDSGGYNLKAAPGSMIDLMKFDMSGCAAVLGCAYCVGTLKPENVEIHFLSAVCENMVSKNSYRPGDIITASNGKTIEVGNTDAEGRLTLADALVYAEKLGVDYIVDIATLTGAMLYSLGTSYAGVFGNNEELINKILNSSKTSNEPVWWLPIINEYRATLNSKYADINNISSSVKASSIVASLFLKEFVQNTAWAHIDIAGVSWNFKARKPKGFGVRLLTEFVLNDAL

[11] = A cytotoxicity screen of small molecule inhibitors of the PhoP region in Salmonella typhi identified in the primary screen. [Related pubchem assays: 1850, 1864, 1985 ]; type: functional
[12] = molecular target: Aspartyl aminopeptidase (Plasmodium falciparum 3D7, UniProt Q8I2J3); test: Counterscreen for inhibitors of M1 and M17 aminopeptidases: QFRET-based biochemical high throughput dose response assay for inhibitors of the Plasmodium falciparum M18 Aspartyl Aminopeptidase (PFM18AAP). [Related PubChem assays: 1619 (Screening assay (M17LAP inhibitors).), 1445 (Screening assay (M1AAP inhibitors).)]
Sequence of Aspartyl aminopeptidase (Q8I2J3 whole entry): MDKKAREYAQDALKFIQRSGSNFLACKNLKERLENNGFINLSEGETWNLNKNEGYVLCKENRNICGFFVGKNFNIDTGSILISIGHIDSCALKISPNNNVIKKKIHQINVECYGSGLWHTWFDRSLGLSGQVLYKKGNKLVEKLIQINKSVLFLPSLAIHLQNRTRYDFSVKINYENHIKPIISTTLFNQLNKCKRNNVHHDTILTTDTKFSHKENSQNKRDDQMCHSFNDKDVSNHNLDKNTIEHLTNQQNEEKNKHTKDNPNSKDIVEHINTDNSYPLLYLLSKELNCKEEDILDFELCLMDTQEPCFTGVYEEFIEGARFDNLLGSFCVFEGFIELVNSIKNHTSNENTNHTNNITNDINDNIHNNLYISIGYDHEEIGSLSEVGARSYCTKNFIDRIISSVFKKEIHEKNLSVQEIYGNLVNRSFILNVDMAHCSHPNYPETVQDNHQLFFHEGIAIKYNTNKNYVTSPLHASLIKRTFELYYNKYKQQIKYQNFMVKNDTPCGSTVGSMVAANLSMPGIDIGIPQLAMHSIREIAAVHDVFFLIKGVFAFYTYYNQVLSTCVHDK

[13] = HPDE-C7 pancreatic duct cell viability loss – fluorescence, HTS (AID 430); type: functional, cell-based; conditions: Homo sapiens
[14] = viability loss of HPDE-C7K cells – cell-based, fluorescence, HTS, primary screen (AID 431); type: functional; conditions: Homo sapiens
[15] = system: HeLa; test: Cytotoxicity counterscreen assay for transcriptional activators of heat shock protein 70 (Hsp70). [Related pubchem assays: 1203, 1252 ]; type: functional; conditions: Homo sapiens;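 note: cells exposed to compound for 16 hours before readout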
[16] = molecular target: Transitional endoplasmic reticulum ATPase (Homo sapiens, UniProt P55072, C522A); test: C522A mutant p97 ATPase inhibitors, dose response, counter-screen for p97 inhibitor project, biochemical, luminescence (AID 1544)
[17] = molecular target: Transitional endoplasmic reticulum ATPase (Homo sapiens, UniProt P55072); test: p97 ATPase inhibitors, dose response, biochemical (AID 1534)
Sequence of Transitional endoplasmic reticulum ATPase (Homo sapiens, UniProt P55072) (P55072 whole entry): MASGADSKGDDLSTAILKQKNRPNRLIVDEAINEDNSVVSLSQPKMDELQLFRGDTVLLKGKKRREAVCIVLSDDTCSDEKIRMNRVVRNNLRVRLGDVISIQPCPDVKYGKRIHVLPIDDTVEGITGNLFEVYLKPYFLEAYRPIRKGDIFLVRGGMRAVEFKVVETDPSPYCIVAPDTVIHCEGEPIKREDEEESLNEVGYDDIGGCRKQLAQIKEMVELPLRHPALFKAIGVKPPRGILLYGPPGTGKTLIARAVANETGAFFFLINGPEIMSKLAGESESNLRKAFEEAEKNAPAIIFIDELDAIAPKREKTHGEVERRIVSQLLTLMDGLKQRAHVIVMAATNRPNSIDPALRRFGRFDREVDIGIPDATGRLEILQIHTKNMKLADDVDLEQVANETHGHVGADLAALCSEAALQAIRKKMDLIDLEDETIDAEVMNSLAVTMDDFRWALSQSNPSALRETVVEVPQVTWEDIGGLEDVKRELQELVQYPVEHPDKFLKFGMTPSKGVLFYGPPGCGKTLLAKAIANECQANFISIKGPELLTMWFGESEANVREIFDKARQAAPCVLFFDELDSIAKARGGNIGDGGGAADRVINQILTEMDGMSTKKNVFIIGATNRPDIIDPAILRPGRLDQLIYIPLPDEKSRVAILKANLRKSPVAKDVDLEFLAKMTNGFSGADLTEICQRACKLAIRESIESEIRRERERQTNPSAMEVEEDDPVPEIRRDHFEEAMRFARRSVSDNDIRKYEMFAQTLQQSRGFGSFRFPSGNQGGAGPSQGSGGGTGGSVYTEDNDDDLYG

[18] = molecular target: T2, Ubiquitin-conjugating enzyme E2 N (Homo sapiens, UniProt P61088); type: functional;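 note: Dose-response confirmation in a TR-FRET assay detecting UBC13-driven polyubiquitin chain formation, inhibition measured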
T2 sequence (P61088 whole entry): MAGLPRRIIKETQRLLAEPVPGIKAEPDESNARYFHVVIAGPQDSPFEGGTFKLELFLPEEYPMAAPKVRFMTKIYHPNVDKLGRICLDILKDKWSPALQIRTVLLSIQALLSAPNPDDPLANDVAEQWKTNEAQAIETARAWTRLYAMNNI

[19] = system: INS1; test: INS-1E survival protection against cytokine death – cell-based, luminescence, retest, dose response (AID 449756); type: functional; conditions: Rattus norvegicus;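 note: cell death triggered by IL-1 beta plus TNF-alpha plus IFN-gamma mixture; protective hits raise ATP signal compared with cytokine alone wells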
[20] = molecular target: T3, Short transient receptor potential channel 4 (Mus musculus, UniProt Q9QUQ5); test: block of DAMGO-driven TRPC4 calcium entry – cell-based, HEK293 TRPC4/mu-opioid, Fluo-4 calcium, dose response (AID 434942); type: functional;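 note: potency of inhibitors blocking the TRPC4 calcium response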
T3 sequence (Q9QUQ5 whole entry): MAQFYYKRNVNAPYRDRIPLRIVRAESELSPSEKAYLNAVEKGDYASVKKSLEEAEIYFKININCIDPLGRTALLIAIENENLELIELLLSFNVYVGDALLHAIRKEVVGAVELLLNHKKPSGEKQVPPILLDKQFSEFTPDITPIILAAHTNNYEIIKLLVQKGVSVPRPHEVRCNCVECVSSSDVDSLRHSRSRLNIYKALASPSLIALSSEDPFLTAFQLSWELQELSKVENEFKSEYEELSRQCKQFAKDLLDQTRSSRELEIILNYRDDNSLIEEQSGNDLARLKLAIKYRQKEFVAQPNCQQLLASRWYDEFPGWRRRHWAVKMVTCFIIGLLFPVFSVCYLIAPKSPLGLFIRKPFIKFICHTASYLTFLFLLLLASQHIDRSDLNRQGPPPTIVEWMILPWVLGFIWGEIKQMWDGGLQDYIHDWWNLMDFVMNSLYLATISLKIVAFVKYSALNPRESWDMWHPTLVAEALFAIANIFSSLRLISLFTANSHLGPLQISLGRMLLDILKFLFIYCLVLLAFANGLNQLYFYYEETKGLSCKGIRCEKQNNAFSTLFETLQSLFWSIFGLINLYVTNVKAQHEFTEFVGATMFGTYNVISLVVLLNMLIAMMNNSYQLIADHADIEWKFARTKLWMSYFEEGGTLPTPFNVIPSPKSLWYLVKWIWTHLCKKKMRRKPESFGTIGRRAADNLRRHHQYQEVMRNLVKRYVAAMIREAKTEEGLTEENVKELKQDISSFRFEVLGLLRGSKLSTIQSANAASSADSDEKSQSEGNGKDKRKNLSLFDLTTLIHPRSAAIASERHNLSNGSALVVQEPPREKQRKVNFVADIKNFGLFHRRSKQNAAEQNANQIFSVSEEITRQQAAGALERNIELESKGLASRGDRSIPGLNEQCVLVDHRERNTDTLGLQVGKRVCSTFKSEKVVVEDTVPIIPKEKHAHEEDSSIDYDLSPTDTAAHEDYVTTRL

[21] = molecular target: Aryl hydrocarbon receptor (Homo sapiens, UniProt P35869); test: Luminescence-based cell-based high throughput dose response assay for activators of the Aryl Hydrocarbon Receptor (AHR). [Related pubchem assays: 2796 (Primary screen (AHR activators in singlicate)), 2845 (Confirmation screen (AHR activators in triplicate)), 434939 (Counterscreen (PXR activators in triplicate)), 2804 (Summary (AHR activators))]; type: ADME
Sequence of Aryl hydrocarbon receptor (P35869 whole entry): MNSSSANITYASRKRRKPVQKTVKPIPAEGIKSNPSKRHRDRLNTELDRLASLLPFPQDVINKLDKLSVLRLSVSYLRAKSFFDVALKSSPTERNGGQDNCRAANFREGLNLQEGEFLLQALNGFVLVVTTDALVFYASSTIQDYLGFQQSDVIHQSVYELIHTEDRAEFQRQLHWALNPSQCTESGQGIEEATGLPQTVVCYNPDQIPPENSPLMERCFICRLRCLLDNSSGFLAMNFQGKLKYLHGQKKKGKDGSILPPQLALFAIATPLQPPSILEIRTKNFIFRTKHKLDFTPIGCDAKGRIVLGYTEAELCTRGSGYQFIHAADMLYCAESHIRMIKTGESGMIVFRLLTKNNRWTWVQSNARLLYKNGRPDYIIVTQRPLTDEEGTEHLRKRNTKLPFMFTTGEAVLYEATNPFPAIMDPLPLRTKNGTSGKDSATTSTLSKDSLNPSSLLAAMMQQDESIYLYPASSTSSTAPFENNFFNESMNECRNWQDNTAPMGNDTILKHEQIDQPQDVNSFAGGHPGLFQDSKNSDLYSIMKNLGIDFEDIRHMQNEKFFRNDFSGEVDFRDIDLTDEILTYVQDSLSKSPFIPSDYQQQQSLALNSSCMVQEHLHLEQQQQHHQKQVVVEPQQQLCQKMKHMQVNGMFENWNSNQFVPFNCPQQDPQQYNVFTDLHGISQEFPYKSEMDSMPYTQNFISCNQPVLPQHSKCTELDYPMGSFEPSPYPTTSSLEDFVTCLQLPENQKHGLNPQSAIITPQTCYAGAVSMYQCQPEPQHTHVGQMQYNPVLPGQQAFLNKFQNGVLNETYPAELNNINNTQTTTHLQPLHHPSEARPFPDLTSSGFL

[22] = molecular target: Heat shock protein HSP 90-alpha (Homo sapiens, UniProt P07900); test: Luminescence-based dose response biochemical high throughput screening assay for inhibitors of the Heat Shock Protein 90 (HSP90). [Related pubchem assays: 1831 (Summary AID.), 1846 (Confirmation screen.), 1789 (Primary screen.)]
[23] = system: Danio rerio; test: In Vivo Angiogenesis Dose-Response Confirmation. [Related pubchem assays: 732 (Assay preceding this confirmatory assay.)]; type: functional, organism-based
[24] = molecular target: Peroxisome proliferator-activated receptor gamma/Nuclear receptor coactivator 1 (Homo sapiens, UniProt P37231); type: functional;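 note: agonist potency as compounds enhance coactivator SRC-1 recruitment to PPARgamma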
Sequence of Peroxisome proliferator-activated receptor gamma/Nuclear receptor coactivator 1 (P37231 whole entry): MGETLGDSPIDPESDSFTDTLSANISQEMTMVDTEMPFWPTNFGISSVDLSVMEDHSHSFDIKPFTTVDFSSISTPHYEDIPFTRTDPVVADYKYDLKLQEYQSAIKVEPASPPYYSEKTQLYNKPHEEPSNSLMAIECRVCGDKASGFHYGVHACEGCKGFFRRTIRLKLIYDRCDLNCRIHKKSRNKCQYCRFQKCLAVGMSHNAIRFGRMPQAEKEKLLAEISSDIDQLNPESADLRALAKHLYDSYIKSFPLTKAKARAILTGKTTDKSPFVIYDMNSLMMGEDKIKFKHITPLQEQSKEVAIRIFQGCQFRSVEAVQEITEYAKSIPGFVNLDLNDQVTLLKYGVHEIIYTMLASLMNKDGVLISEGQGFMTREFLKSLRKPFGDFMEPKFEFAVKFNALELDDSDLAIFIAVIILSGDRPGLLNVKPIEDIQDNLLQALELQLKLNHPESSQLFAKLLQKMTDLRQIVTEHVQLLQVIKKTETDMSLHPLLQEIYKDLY
Sequence of Peroxisome proliferator-activated receptor gamma/Nuclear receptor coactivator 1 (Q15788 whole entry, further chain): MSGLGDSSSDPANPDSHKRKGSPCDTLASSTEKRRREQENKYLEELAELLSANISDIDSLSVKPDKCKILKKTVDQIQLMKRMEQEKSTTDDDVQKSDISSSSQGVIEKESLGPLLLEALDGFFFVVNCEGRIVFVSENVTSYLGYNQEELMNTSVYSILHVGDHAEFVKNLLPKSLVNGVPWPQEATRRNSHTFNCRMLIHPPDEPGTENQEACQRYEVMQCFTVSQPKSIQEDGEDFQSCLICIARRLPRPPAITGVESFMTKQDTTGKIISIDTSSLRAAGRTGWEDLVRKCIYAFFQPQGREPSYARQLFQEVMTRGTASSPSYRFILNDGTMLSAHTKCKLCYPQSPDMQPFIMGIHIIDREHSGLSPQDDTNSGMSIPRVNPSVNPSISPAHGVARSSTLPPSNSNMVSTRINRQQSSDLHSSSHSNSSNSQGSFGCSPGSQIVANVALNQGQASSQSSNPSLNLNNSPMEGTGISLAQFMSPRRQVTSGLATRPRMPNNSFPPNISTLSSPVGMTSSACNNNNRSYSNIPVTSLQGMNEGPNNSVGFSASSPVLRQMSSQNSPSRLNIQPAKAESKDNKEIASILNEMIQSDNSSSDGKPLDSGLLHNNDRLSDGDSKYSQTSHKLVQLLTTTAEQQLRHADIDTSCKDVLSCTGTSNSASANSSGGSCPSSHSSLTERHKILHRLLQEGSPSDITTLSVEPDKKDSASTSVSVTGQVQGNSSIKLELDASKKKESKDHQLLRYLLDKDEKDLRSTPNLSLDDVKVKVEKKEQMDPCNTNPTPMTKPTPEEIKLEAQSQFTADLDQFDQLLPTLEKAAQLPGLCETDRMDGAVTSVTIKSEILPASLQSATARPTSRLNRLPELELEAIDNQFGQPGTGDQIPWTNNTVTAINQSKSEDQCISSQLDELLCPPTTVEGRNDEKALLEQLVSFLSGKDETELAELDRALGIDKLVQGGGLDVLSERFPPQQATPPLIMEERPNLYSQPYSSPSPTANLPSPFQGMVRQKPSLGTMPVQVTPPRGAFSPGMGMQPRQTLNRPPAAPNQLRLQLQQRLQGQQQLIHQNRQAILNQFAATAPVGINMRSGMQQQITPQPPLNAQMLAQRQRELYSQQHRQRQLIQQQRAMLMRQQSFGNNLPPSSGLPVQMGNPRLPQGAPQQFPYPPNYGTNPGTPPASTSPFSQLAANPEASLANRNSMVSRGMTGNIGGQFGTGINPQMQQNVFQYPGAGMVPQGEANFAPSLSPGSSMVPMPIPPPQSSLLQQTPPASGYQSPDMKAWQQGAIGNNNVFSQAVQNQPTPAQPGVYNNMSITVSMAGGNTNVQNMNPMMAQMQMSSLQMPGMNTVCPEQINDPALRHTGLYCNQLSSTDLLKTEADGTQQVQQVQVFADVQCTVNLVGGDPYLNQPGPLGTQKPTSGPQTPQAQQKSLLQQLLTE

[25] = molecular target: Peroxisome proliferator-activated receptor gamma/Nuclear receptor coactivator 3 (Homo sapiens, UniProt P37231); type: functional;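 note: agonist potency for raising coactivator recruitment to the receptor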
[26] = molecular target: T4, Calpain-2 catalytic subunit (Sus scrofa, UniProt P43367); test: m-calpain protease blockers, concentration series – biochemical, fluorogenic peptide substrate, dose response (AID 1420); type: functional
T4 sequence (P43367 whole entry): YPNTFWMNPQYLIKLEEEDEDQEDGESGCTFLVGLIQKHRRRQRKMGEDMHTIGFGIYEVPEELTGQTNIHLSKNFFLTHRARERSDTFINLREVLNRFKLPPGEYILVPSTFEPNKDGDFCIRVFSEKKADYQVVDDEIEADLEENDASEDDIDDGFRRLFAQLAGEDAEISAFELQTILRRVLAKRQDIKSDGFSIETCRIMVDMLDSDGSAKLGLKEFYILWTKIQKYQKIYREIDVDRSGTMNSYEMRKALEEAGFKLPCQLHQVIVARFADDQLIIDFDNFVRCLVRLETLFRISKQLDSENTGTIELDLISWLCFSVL

[27] = molecular target: Peroxisome proliferator-activated receptor gamma/Nuclear receptor coactivator 2 (Homo sapiens, UniProt P37231); type: functional;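 note: agonist potency for raising coactivator recruitment to the receptor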
[28] = molecular target: Cytochrome P450 3A4 (Homo sapiens, UniProt P08684);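 note: CYP3A4 tested as one member of a cytochrome P450 panel screen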
Sequence of Cytochrome P450 3A4 (P08684 whole entry): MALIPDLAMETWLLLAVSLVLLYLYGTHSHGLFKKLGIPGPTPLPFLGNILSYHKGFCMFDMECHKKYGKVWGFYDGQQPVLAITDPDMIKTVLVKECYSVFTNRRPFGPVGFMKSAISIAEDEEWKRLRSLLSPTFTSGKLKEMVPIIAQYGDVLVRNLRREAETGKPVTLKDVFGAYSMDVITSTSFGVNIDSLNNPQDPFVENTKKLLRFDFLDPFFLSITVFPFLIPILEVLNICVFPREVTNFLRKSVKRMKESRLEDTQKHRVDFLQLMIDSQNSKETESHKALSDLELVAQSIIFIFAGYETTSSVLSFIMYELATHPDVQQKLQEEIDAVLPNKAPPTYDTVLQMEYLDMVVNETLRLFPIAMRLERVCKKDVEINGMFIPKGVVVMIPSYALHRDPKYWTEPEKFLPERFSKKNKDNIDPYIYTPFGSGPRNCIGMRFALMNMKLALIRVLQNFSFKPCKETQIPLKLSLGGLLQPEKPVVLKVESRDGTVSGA

[29] = Luminescence Cell-Based Dose Retest to Confirm Inhibitors of Cancer Stem Cells. [Related pubchem assays (depositor defined):AID2717, AID2721]; type: functional; conditions: Homo sapiens
[30] = Luminescence-based cell-based high throughput dose response assay to identify activators of the DAF-12 from the parasite S. stercoralis (ssDAF-12).; type: functional

SMILES: COC(=O)c1ccc(CN2CCCC(CCC(=O)NCc3ccc(C)o3)C2)cc1 (stereo not given)
- EC50 [1]: < 0.1 µM (active)
- EC50 [2]: > 60 µM (not active)
- EC50 [3]: 0.113 µM (active)

SMILES: COc1ccccc1-c1nc(-c2ccc(Br)cc2)no1
- EC50 [4]: 0.378 µM (active)
- EC50 [5]: 0.427 µM (active)
- EC50 [6]: 0.34 µM (active)
- EC50 [7]: < 0.1 µM (active)
- EC50 [8]: 0.217 µM (active)

SMILES: CCCCc1c(O)nc(SCC(=O)Nc2ccc3c(c2)CCC3)nc1O
- IC50 [9]: > 59.6 µM (not active)
- IC50 [10]: 7.61 µM (active)
- EC50 [11]: > 50 µM (active)
- IC50 [12]: > 73.5 µM (not active)

SMILES: Cc1ccc(S(=O)(=O)Nc2ccc3oc(=O)sc3c2)c(C)c1
- EC50 [13]: 12.8 µM (active)
- EC50 [14]: 13.7 µM (active)

SMILES: CCOC(=O)c1sc2nc(C)nc(Nc3ccccc3)c2c1C
- CC50 [15]: > 99 µM (not active)

SMILES: Cc1no[n+]([O-])c1COc1ccccc1/C=C1\NC(=S)NC1=O
- IC50 [16]: > 50 µM (not active)
- IC50 [17]: > 50 µM (not active)

SMILES: COCC(=O)Nc1cccc(Br)c1
- CC50 [15]: > 99 µM (not active)

SMILES: CC(C)(C)c1cc(NCCCn2ccnc2)n2ncc(-c3ccccc3)c2n1
- IC50 [18]: > 20 µM (inactive)
- EC50 [4]: 0.377 µM (active)
- EC50 [5]: 1.27 µM (active)
- EC50 [6]: 0.735 µM (active)
- EC50 [7]: > 120 µM (not active)
- EC50 [8]: < 0.1 µM (active)
- AC50 [19]: 11 µM (active)

SMILES: Cc1ccccc1Oc1ccc(NC(=O)C2CC=CCC2C(=O)O)cc1 (stereo not given)
- IC50 [9]: > 59.6 µM (not active)
- IC50 [10]: 1.33 µM (active)
- IC50 [12]: > 73.5 µM (not active)

SMILES: COc1cc(CN(C)CC2CCCN(CCc3ccccc3F)C2)cc(Cl)c1OC (stereo not given)
- EC50 [1]: < 0.1 µM (active)
- EC50 [20]: 3.35 µM (active)
- EC50 [2]: 11.1 µM (active)
- EC50 [3]: 0.263 µM (active)

SMILES: Cc1ccc(C)c2sc(NC(=O)C3CC3)nc12
- EC50 [21]: 4.22 µM (active)

SMILES: COC(=O)c1ccc(N/C=C/C(=O)c2ccccc2)cc1
- IC50 [22]: 3.73 µM (active)

SMILES: O=C(CN1CCOCC1)Nc1nc2ccc([N+](=O)[O-])cc2s1
- EC50 [21]: 2.61 µM (active)

SMILES: Cc1cccc2c1NC(=O)/C2=C1\Nc2ccccc2\C1=N/O
- IC50 [23]: 0.68 µM (active)

SMILES: CCc1cc2c(=O)c(-c3nc(C)cs3)coc2cc1OC(C)C(=O)NCCO (stereo not given)
- EC50 [24]: > 79.4 µM (not active)
- EC50 [25]: > 79.4 µM (not active)
- IC50 [26]: 3.22 µM (not active)
- EC50 [27]: > 79.4 µM (not active)

SMILES: Cc1[nH]n(-c2ccccc2)c(=O)c1N=Nc1ccc(C(N)=O)cc1
- IC50 [22]: 20.9 µM (not active)

SMILES: CCN1C(=O)CS/C1=N/C1C2CC3CC(C2)CC1C3 (stereo not given)
- EC50 [13]: > 20 µM (not active)
- EC50 [14]: 11.4 µM (active)

SMILES: CCOC(=O)c1sc2nccc(N(C)C)c2c1/N=C/N(C)C
- EC50 [24]: > 79.4 µM (not active)
- EC50 [25]: > 79.4 µM (not active)
- EC50 [27]: > 79.4 µM (not active)

SMILES: O=c1c2ccccc2nc2n1CCc1c-2[nH]c2ccccc12 [RUTAECARPINE]
- AC50 [28]: 3.98 µM (inconclusive)
- AC50 [29]: 25.1 µM (active)
- IC50 [30]: > 67.6 µM (inactive)
- IC50 [23]: 25.5 µM (not active)
